# Results as given in ChEMBL document CHEMBL1201862, “PubChem BioAssay data set” (2004).
#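 How tested: cells in 96-well plates exposed to compound for 48 hours at five concentrations. Abbreviation: GI50, concentration required for 50% inhibition of growth.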 Activity calls are given as the source filed them. Rule as the data show it: active = GI50 up to about 1.1 µM and inactive = higher.
# What was measured:
# Assay in all cases: inhibition of tumour cell growth, NCI panel, 48 h
# 786-0 = tested on: 786-0
# CAKI-1 = tested on: CAKI-1
# COLO 205 = tested on: COLO 205
# HCC 2998 = tested on: HCC 2998
# HOP-92 = tested on: HOP-92
# MDA-MB-435 = tested on: MDA-MB-435
# MDA-N = tested on: MDA-N
# OVCAR-5 = tested on: OVCAR-5
# SF-268 = tested on: SF-268
# SNB-19 = tested on: SNB-19
# SW-620 = tested on: SW-620
# UACC-257 = tested on: UACC-257
# CCRF-CEM = tested on: CCRF-CEM
# KM12 = tested on: KM12
# LOX IMVI = tested on: LOX IMVI
# Malme-3M = tested on: Malme-3M
# NCI/ADR-RES = tested on: NCI/ADR-RES
# OVCAR-3 = tested on: OVCAR-3
Structure (SMILES),GI50 (786-0),GI50 (CAKI-1),GI50 (COLO 205),GI50 (HCC 2998),GI50 (HOP-92),GI50 (MDA-MB-435),GI50 (MDA-N),GI50 (OVCAR-5),GI50 (SF-268),GI50 (SNB-19),GI50 (SW-620),GI50 (UACC-257),GI50 (CCRF-CEM),GI50 (KM12),GI50 (LOX IMVI),GI50 (Malme-3M),GI50 (NCI/ADR-RES),GI50 (OVCAR-3)
O=C1NC(=O)c2ccc([N+](=O)[O-])c3cccc1c23,14 µM (inactive),23.5 µM (inactive),14.9 µM (inactive),24.7 µM (inactive),20 µM (inactive),16.4 µM (inactive),12.4 µM (inactive),18.3 µM (inactive),24.4 µM (inactive),19.5 µM (inactive),13 µM (inactive),16.9 µM (inactive),–,–,–,–,–,–
O=C(Nn1c(-c2ccccc2)nc2ccccc2c1=O)c1ccccn1,> 100 µM (inactive),–,> 100 µM (inactive),> 100 µM (inactive),78 µM (inactive),> 100 µM (inactive),–,–,> 100 µM (inactive),> 100 µM (inactive),> 100 µM (inactive),> 100 µM (inactive),41.5 µM (inactive),83.6 µM (inactive),> 100 µM (inactive),> 100 µM (inactive),> 100 µM (inactive),79.3 µM (inactive)
CC(=O)OC1[C@H](n2ccnc2)C[C@H]2[C@@H]3CC=C4CC(N5CCCC5)CC[C@]4(C)[C@H]3CC[C@]12C (stereo partly drawn),22.5 µM (inactive),43.5 µM (inactive),23.7 µM (inactive),–,69.5 µM (inactive),23.8 µM (inactive),28.1 µM (inactive),> 100 µM (inactive),34.8 µM (inactive),> 100 µM (inactive),54.1 µM (inactive),18.8 µM (inactive),25.6 µM (inactive),58.3 µM (inactive),10.1 µM (inactive),–,> 100 µM (inactive),54.6 µM (inactive)
O=C(O)CN1C=C(C(=O)c2cc3ccccc3n2S(=O)(=O)c2ccccc2)CCC1,50.7 µM (inactive),> 100 µM (inactive),20.9 µM (inactive),69.7 µM (inactive),46.9 µM (inactive),43.5 µM (inactive),–,> 100 µM (inactive),> 100 µM (inactive),> 100 µM (inactive),69.2 µM (inactive),> 100 µM (inactive),30.9 µM (inactive),37.1 µM (inactive),64.9 µM (inactive),28.4 µM (inactive),66.1 µM (inactive),51.9 µM (inactive)
CN(C)CC(C)(C)CN1c2ccccc2Sc2ccccc21,12.9 µM (inactive),12.1 µM (inactive),12.2 µM (inactive),–,11.8 µM (inactive),13.4 µM (inactive),15 µM (inactive),14.8 µM (inactive),14.5 µM (inactive),15.6 µM (inactive),15 µM (inactive),12 µM (inactive),–,12.8 µM (inactive),13.6 µM (inactive),14.8 µM (inactive),12.7 µM (inactive),11.9 µM (inactive)
Cc1cc(C[C@H]2O[C@@H]3OC(C)(C)O[C@@H]3[C@H]3OC(C)(C)O[C@H]32)c2ccccc2n1,> 100 µM (inactive),56.6 µM (inactive),> 100 µM (inactive),> 100 µM (inactive),–,> 100 µM (inactive),41.3 µM (inactive),> 100 µM (inactive),> 100 µM (inactive),> 100 µM (inactive),> 100 µM (inactive),> 100 µM (inactive),42.1 µM (inactive),54.8 µM (inactive),> 100 µM (inactive),64.9 µM (inactive),34 µM (inactive),–
O=P(O)(O)c1ccc(-c2ccc(I)cc2)cc1,> 100 µM (inactive),> 100 µM (inactive),> 100 µM (inactive),> 100 µM (inactive),–,–,> 100 µM (inactive),> 100 µM (inactive),> 100 µM (inactive),> 100 µM (inactive),> 100 µM (inactive),> 100 µM (inactive),> 100 µM (inactive),> 100 µM (inactive),> 100 µM (inactive),> 100 µM (inactive),> 100 µM (inactive),–
COC(=O)C(Nc1ccc(OC)cc1)c1ccccc1 (stereo not drawn),> 100 µM (inactive),> 100 µM (inactive),> 100 µM (inactive),–,–,> 100 µM (inactive),> 100 µM (inactive),> 100 µM (inactive),> 100 µM (inactive),> 100 µM (inactive),> 100 µM (inactive),> 100 µM (inactive),> 100 µM (inactive),> 100 µM (inactive),> 100 µM (inactive),–,74.1 µM (inactive),> 100 µM (inactive)
COc1ccc(C2CC3(c4ccccc4)ON=C(c4ccccc4)N3c3ccccc3S2)cc1 (stereo not drawn),> 100 µM (inactive),> 100 µM (inactive),> 100 µM (inactive),> 100 µM (inactive),–,> 100 µM (inactive),> 100 µM (inactive),> 100 µM (inactive),> 100 µM (inactive),–,> 100 µM (inactive),> 100 µM (inactive),> 100 µM (inactive),> 100 µM (inactive),> 100 µM (inactive),> 100 µM (inactive),> 100 µM (inactive),> 100 µM (inactive)
O=C1Nc2cccc3cc(NCC(O)CCl)cc1c23 (stereo not drawn),55 µM (inactive),35.2 µM (inactive),77.4 µM (inactive),91 µM (inactive),55.5 µM (inactive),54.2 µM (inactive),–,> 100 µM (inactive),38.4 µM (inactive),53.6 µM (inactive),40.5 µM (inactive),> 100 µM (inactive),22.2 µM (inactive),35.2 µM (inactive),27.3 µM (inactive),88.1 µM (inactive),64.7 µM (inactive),51.4 µM (inactive)
CCOC(=O)c1ccc(-c2cc(C)no2)[nH]1,> 100 µM (inactive),28.8 µM (inactive),40 µM (inactive),–,> 100 µM (inactive),11.4 µM (inactive),22 µM (inactive),> 100 µM (inactive),> 100 µM (inactive),> 100 µM (inactive),45.3 µM (inactive),> 100 µM (inactive),> 100 µM (inactive),31.8 µM (inactive),> 100 µM (inactive),> 100 µM (inactive),46.7 µM (inactive),81.8 µM (inactive)
CC1=C(C(=O)Nc2cccc3c2C(=O)NC3=O)CC(C(=O)Nc2cccc3c2C(=O)NC3=O)=C(C)N1,> 100 µM (inactive),> 100 µM (inactive),40.7 µM (inactive),95.5 µM (inactive),> 100 µM (inactive),> 100 µM (inactive),> 100 µM (inactive),> 100 µM (inactive),> 100 µM (inactive),> 100 µM (inactive),> 100 µM (inactive),> 100 µM (inactive),> 100 µM (inactive),> 100 µM (inactive),> 100 µM (inactive),> 100 µM (inactive),–,> 100 µM (inactive)
COc1cc([C@@H]2c3cc4c(cc3[C@@H](Nc3ccccc3C(=O)c3ccccc3)[C@H]3COC(=O)[C@H]23)OCO4)cc(OC)c1OC,0.618 µM (active),0.741 µM (active),0.472 µM (active),2.36 µM (inactive),–,0.27 µM (active),0.316 µM (active),0.885 µM (active),0.855 µM (active),1.37 µM (inactive),0.471 µM (active),0.933 µM (active),0.347 µM (active),0.3 µM (active),0.313 µM (active),0.458 µM (active),0.479 µM (active),0.785 µM (active)
COc1ccc2nc(NCN3C(=O)c4ccccc4C3=O)sc2c1,> 100 µM (inactive),–,> 100 µM (inactive),–,> 100 µM (inactive),> 100 µM (inactive),> 100 µM (inactive),> 100 µM (inactive),> 100 µM (inactive),> 100 µM (inactive),> 100 µM (inactive),> 100 µM (inactive),> 100 µM (inactive),> 100 µM (inactive),> 100 µM (inactive),> 100 µM (inactive),> 100 µM (inactive),> 100 µM (inactive)
Cn1c(C(C#N)c2cc(Cl)ncn2)nc2ccccc21 (stereo not drawn),> 100 µM (inactive),> 100 µM (inactive),> 100 µM (inactive),–,> 100 µM (inactive),> 100 µM (inactive),> 100 µM (inactive),> 100 µM (inactive),> 100 µM (inactive),> 100 µM (inactive),> 100 µM (inactive),> 100 µM (inactive),–,> 100 µM (inactive),> 100 µM (inactive),> 100 µM (inactive),> 100 µM (inactive),> 100 µM (inactive)
CCC[C@H]1C(=O)N=C(N)N1C(=O)OCc1ccccc1,> 100 µM (inactive),> 100 µM (inactive),> 100 µM (inactive),> 100 µM (inactive),–,> 100 µM (inactive),> 100 µM (inactive),> 100 µM (inactive),> 100 µM (inactive),> 100 µM (inactive),> 100 µM (inactive),> 100 µM (inactive),–,> 100 µM (inactive),> 100 µM (inactive),> 100 µM (inactive),> 100 µM (inactive),> 100 µM (inactive)
CC(=O)OCC1OC(N2C(=O)NC(=O)C3C=C4CCCCC4=CC32)CC1OC(C)=O (stereo not drawn),> 100 µM (inactive),–,–,–,> 100 µM (inactive),> 100 µM (inactive),> 100 µM (inactive),> 100 µM (inactive),> 100 µM (inactive),> 100 µM (inactive),> 100 µM (inactive),> 100 µM (inactive),–,> 100 µM (inactive),> 100 µM (inactive),> 100 µM (inactive),> 100 µM (inactive),> 100 µM (inactive)
